# Measurements from the supplement of paper PMC8149375.
# Columns and labels:
# Details in all cases: treatment: drug + dasatinib (fixed dose, not stated); 5 days
# 769-P [1] = experiment: GI50 of drug in presence of dasatinib; higher = less potent
# Procedure: (§1)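 Primary HTS combination arm: 8 RCC cell lines treated with 8 doses (up to 10 uM) of each library drug plus a fixed dose of dasatinib (dose not stated) for 5 days; viability read by CellTiter-Glo and normalised to DMSO. GI50 was fitted with XLfit, AUC is the area under the dose-response curve, and minimum viability is the lowest fraction of DMSO viability across doses.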
# 786-O [2] = experiment: as above
# Procedure: as §1
# A498 [3] = experiment: as above
# Procedure: as §1
# ACHN [4] = experiment: as above
# Procedure: as §1
# CAKI-1 [5] = experiment: as above
# Procedure: as §1
# SN12C [6] = experiment: as above
# Procedure: as §1
# TK-10 [7] = experiment: as above
# Procedure: as §1
# UO-31 [8] = experiment: as above
# Procedure: as §1
# 769-P [9] = experiment: minimum viability across doses, drug + dasatinib, relative to DMSO (fraction); higher = less growth inhibition
# Procedure: as §1
# 786-O [10] = experiment: as above
# Procedure: as §1
# A498 [11] = experiment: as above
# Procedure: as §1
# ACHN [12] = experiment: as above
# Procedure: as §1
# CAKI-1 [13] = experiment: as above
# Procedure: as §1
# SN12C [14] = experiment: as above
# Procedure: as §1
# TK-10 [15] = experiment: as above
# Procedure: as §1
# UO-31 [16] = experiment: as above
# Procedure: as §1
# 769-P [17] = experiment: AUC of dose-response viability curve, drug + dasatinib, normalised to DMSO (arbitrary (AUC of normalised viability)); higher = less growth inhibition
# Procedure: as §1
# 786-O [18] = experiment: as above
# Procedure: as §1
# A498 [19] = experiment: as above
# Procedure: as §1
# ACHN [20] = experiment: as above
# Procedure: as §1
# CAKI-1 [21] = experiment: as above
# Procedure: as §1
# SN12C [22] = experiment: as above
# Procedure: as §1
# TK-10 [23] = experiment: as above
# Procedure: as §1
# UO-31 [24] = experiment: as above
# Procedure: as §1
SMILES,GI50 of drug (786-O [2]),GI50 of drug (ACHN [4]),GI50 of drug (769-P [1]),GI50 of drug (A498 [3]),GI50 of drug (CAKI-1 [5]),GI50 of drug (SN12C [6]),GI50 of drug (TK-10 [7]),GI50 of drug (UO-31 [8]),minimum viability across doses (769-P [9]),minimum viability across doses (786-O [10]),minimum viability across doses (A498 [11]),minimum viability across doses (ACHN [12]),minimum viability across doses (CAKI-1 [13]),minimum viability across doses (SN12C [14]),minimum viability across doses (TK-10 [15]),minimum viability across doses (UO-31 [16]),AUC of dose-response viability curve (769-P [17]),AUC of dose-response viability curve (786-O [18]),AUC of dose-response viability curve (A498 [19]),AUC of dose-response viability curve (ACHN [20]),AUC of dose-response viability curve (CAKI-1 [21]),AUC of dose-response viability curve (SN12C [22]),AUC of dose-response viability curve (TK-10 [23]),AUC of dose-response viability curve (UO-31 [24])
N#C/C(=C\c1ccc(O)c(O)c1)C(=O)NCc1ccccc1 [AG-490] + Cc1nc(Nc2ncc(C(=O)Nc3c(C)cccc3Cl)s2)cc(N2CCN(CCO)CC2)n1 [dasatinib],2470 nM,2330 nM,8560 nM,> 10000 nM,> 10000 nM,> 10000 nM,> 10000 nM,> 10000 nM,0.488,0.355,0.887,0.179,0.667,0.681,0.544,0.8,2.42,2.36,3.3,1.98,2.43,2.49,2.62,3.44
CC(C)(C)c1cc(C=C(C#N)C#N)cc(Br)c1O [AG-1024] + Cc1nc(Nc2ncc(C(=O)Nc3c(C)cccc3Cl)s2)cc(N2CCN(CCO)CC2)n1 [dasatinib],> 10000 nM,> 10000 nM,> 10000 nM,> 10000 nM,> 10000 nM,> 10000 nM,> 10000 nM,> 10000 nM,0.586,0.601,0.971,0.515,0.57,0.687,0.698,1.06,2.38,2.42,3.66,2.02,2.24,2.55,2.59,4.02
COc1cc2ncnc(Nc3cccc(Cl)c3)c2cc1OC [AG-1478 (Tyrphostin AG-1478)] + Cc1nc(Nc2ncc(C(=O)Nc3c(C)cccc3Cl)s2)cc(N2CCN(CCO)CC2)n1 [dasatinib],37 nM,20.9 nM,107 nM,> 10000 nM,7730 nM,> 10000 nM,726 nM,> 10000 nM,0.3,0.284,0.961,0.236,0.451,0.646,0.363,0.586,1.67,1.84,3.95,1.39,2.2,2.37,1.93,3.65
Cc1csc(-c2nnc(Nc3ccc(Oc4ncccc4-c4ccnc(N)n4)cc3)c3ccccc23)c1 [AMG 900] + Cc1nc(Nc2ncc(C(=O)Nc3c(C)cccc3Cl)s2)cc(N2CCN(CCO)CC2)n1 [dasatinib],7.2 nM,8.54 nM,36.1 nM,> 10000 nM,15.4 nM,383 nM,6460 nM,> 10000 nM,0.211,0.117,0.562,0.186,0.286,0.319,0.459,0.604,1.44,0.863,3.08,1.25,1.32,1.93,2.2,4.1
O=C1NC(=O)[C@@H](c2cn3c4c(cccc24)CCC3)[C@@H]1c1c[nH]c2ccccc12 [ARQ 197 (Tivantinib)] + Cc1nc(Nc2ncc(C(=O)Nc3c(C)cccc3Cl)s2)cc(N2CCN(CCO)CC2)n1 [dasatinib],191 nM,367 nM,509 nM,974 nM,178 nM,1870 nM,1460 nM,1980 nM,0.0843,0.00404,0.133,0.147,0.0929,0.181,0.298,0.03,1.87,1.42,2.42,1.73,1.56,2.01,2.11,2.97
Cc1cc2c(C(C)C)c(O)c(O)c(C=O)c2c(O)c1-c1c(C)cc2c(C(C)C)c(O)c(O)c(C=O)c2c1O [AT101] + Cc1nc(Nc2ncc(C(=O)Nc3c(C)cccc3Cl)s2)cc(N2CCN(CCO)CC2)n1 [dasatinib],> 10000 nM,1850 nM,> 10000 nM,> 10000 nM,3350 nM,> 10000 nM,> 10000 nM,> 10000 nM,0.636,0.265,0.835,0.133,0.106,0.667,0.517,0.947,2.6,2.18,3.27,1.84,2.15,2.62,2.33,3.9
O=C(NC1CCNCC1)c1n[nH]cc1NC(=O)c1c(Cl)cccc1Cl [AT7519] + Cc1nc(Nc2ncc(C(=O)Nc3c(C)cccc3Cl)s2)cc(N2CCN(CCO)CC2)n1 [dasatinib],218 nM,271 nM,1130 nM,337 nM,347 nM,435 nM,610 nM,864 nM,0.0219,0.00538,0.00778,0.00318,0.0385,0.00559,0.179,0.00867,2.02,1.52,2.2,1.44,1.64,1.59,2.09,2.79
Clc1ccc(C2(c3ccc(-c4cn[nH]c4)cc3)CCNCC2)cc1 [AT7867] + Cc1nc(Nc2ncc(C(=O)Nc3c(C)cccc3Cl)s2)cc(N2CCN(CCO)CC2)n1 [dasatinib],577 nM,530 nM,1690 nM,8310 nM,762 nM,3460 nM,1970 nM,348 nM,0.124,0.00775,0.135,0.0726,0.094,0.192,0.0469,0.00689,2.16,1.85,3.22,1.69,1.96,2.43,2.49,2.34
O=C(Nc1c[nH]nc1-c1nc2cc(CN3CCOCC3)ccc2[nH]1)NC1CC1 [AT9283] + Cc1nc(Nc2ncc(C(=O)Nc3c(C)cccc3Cl)s2)cc(N2CCN(CCO)CC2)n1 [dasatinib],48.7 nM,48.8 nM,128 nM,633 nM,134 nM,672 nM,253 nM,306 nM,0.0379,0.00871,0.0108,0.0114,0.0645,0.00616,0.0526,0.0134,1.46,1.19,2.4,1.18,1.67,1.75,1.83,1.87

# Continued, in another order:
GI50 of drug (786-O [2]),GI50 of drug (ACHN [4]),SMILES,GI50 of drug (769-P [1]),GI50 of drug (A498 [3]),GI50 of drug (CAKI-1 [5]),GI50 of drug (SN12C [6]),GI50 of drug (TK-10 [7]),GI50 of drug (UO-31 [8]),minimum viability across doses (769-P [9]),minimum viability across doses (786-O [10]),minimum viability across doses (A498 [11]),minimum viability across doses (ACHN [12]),minimum viability across doses (CAKI-1 [13]),minimum viability across doses (SN12C [14]),minimum viability across doses (TK-10 [15]),minimum viability across doses (UO-31 [16]),AUC of dose-response viability curve (769-P [17]),AUC of dose-response viability curve (786-O [18]),AUC of dose-response viability curve (A498 [19]),AUC of dose-response viability curve (ACHN [20]),AUC of dose-response viability curve (CAKI-1 [21]),AUC of dose-response viability curve (SN12C [22]),AUC of dose-response viability curve (TK-10 [23]),AUC of dose-response viability curve (UO-31 [24])
469 nM,2560 nM,CN(C)CC[C@H](CSc1ccccc1)Nc1ccc(S(=O)(=O)NC(=O)c2ccc(N3CCN(Cc4ccccc4-c4ccc(Cl)cc4)CC3)cc2)cc1[N+](=O)[O-] [ABT-737] + Cc1nc(Nc2ncc(C(=O)Nc3c(C)cccc3Cl)s2)cc(N2CCN(CCO)CC2)n1 [dasatinib],2140 nM,5920 nM,> 10000 nM,> 10000 nM,3300 nM,3310 nM,0.0505,0.00111,0.171,0.23,0.65,0.515,0.144,0.00776,2.31,1.74,3.1,1.9,2.41,2.58,2.24,3.71
4450 nM,13.7 nM,CCN1CCN(Cc2ccc(-c3cc4c(N[C@H](C)c5ccccc5)ncnc4[nH]3)cc2)CC1 [AEE788 (NVP-AEE788)] + Cc1nc(Nc2ncc(C(=O)Nc3c(C)cccc3Cl)s2)cc(N2CCN(CCO)CC2)n1 [dasatinib],298 nM,5830 nM,1770 nM,2100 nM,305 nM,1790 nM,0.0653,0.0446,0.258,0.0466,0.0223,0.218,0.0139,0.00751,1.81,2.38,2.9,1.19,2,2.16,1.92,2.92
4000 nM,1000 nM,COc1ccc2c(Oc3ccc(NC(=O)c4c(C)n(CC(C)(C)O)n(-c5ccccc5)c4=O)nc3)ccnc2c1 [AMG458] + Cc1nc(Nc2ncc(C(=O)Nc3c(C)cccc3Cl)s2)cc(N2CCN(CCO)CC2)n1 [dasatinib],3380 nM,> 10000 nM,893 nM,1730 nM,5300 nM,4300 nM,0.421,0.195,0.771,0.152,0.085,0.396,0.392,0.0124,2.27,2.08,3.38,1.89,1.92,2.06,2.39,3.35
> 10000 nM,> 10000 nM,COc1ccc2c(OCc3nnc4ccc(-c5ccccc5)nn34)ccnc2c1 [AMG-208] + Cc1nc(Nc2ncc(C(=O)Nc3c(C)cccc3Cl)s2)cc(N2CCN(CCO)CC2)n1 [dasatinib],> 10000 nM,> 10000 nM,> 10000 nM,> 10000 nM,> 10000 nM,> 10000 nM,0.634,0.68,0.805,0.544,0.613,0.688,0.642,0.987,2.4,2.6,3.32,2.07,2.24,2.52,2.54,3.91
1110 nM,84.7 nM,C=CC(=O)Nc1ccc2ncnc(Nc3ccc(OCc4cccc(F)c4)c(Cl)c3)c2c1.Cc1ccc(S(=O)(=O)O)cc1 [AST-1306] + Cc1nc(Nc2ncc(C(=O)Nc3c(C)cccc3Cl)s2)cc(N2CCN(CCO)CC2)n1 [dasatinib],321 nM,9990 nM,1680 nM,5350 nM,406 nM,3170 nM,0.0288,0.0714,0.495,0.138,0.00665,0.0534,0.0976,0.06,1.82,1.99,3.44,1.62,2.04,2.22,2.01,3.51
